Measured values from paper PMC11882969 (Nature Communications, 2025).
Several values for one entry are separate records, joined by “and”; a condition that tells them apart may be missing. Equal values may be shown once.

Molecular target: hCB2 (Homo sapiens, UniProt P34972)
Test: bioSensAll ebBRET signaling profiling, hCB2
Format: cell-based
Design: host or cells: HEK293SL cells, transient PEI transfection
Details: for RE, relative efficacy: vs CP-55,940; for G13 hCB2 / G15 hCB2 / Gq hCB2 / Gs hCB2: raw signal
[1] = Log [Compound] (M) not printed (line after -13)

hCB2, sequence (P34972 whole entry): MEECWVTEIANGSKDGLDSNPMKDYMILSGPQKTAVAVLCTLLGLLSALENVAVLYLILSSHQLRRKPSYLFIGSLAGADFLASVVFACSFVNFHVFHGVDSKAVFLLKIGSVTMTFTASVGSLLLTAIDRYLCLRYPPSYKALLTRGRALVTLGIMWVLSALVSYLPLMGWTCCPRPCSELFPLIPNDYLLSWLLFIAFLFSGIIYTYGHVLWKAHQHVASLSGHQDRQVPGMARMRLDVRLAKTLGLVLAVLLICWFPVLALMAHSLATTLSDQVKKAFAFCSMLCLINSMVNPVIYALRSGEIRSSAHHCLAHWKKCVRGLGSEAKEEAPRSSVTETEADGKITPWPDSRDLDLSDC

`COC(=O)[C@@](C)(NC(=O)c1cc(C)n(-c2cccc(C(F)(F)F)c2)n1)c1cccs1` [‘1350] was tested. Which “Barr2+GRK2 hCB2” value (Log [Compound] (M) -4.22186) did it give?
The value was 44.1172 and 39.7347.

And the “Gi1 hCB2” value (Log [Compound] (M) -4.22186)?
Its value is 74.4771 and 77.5324.

What about the “Gi2 hCB2” value (Log [Compound] (M) -4.22186) of the same molecule?
The value was 66.5499.

And the “GoB hCB2” value (Log [Compound] (M) -4.22186)?
Its value is 56.9391 and 70.3563.

What about the “Gz hCB2” value (Log [Compound] (M) -4.22186) of the same molecule?
The value was 58.5774 and 64.6863.

What about the “Barr2+GRK2 hCB2” value (Log [Compound] (M) -4.63927) of the same molecule?
The value was 32.763 and 29.7899.

What about the “Gi1 hCB2” value (Log [Compound] (M) -4.63927) of the same molecule?
Its value is 72.942 and 75.6692.

What about the “Gi2 hCB2” value (Log [Compound] (M) -4.63927) of the same molecule?
The value was 60.7879.

What about the “GoB hCB2” value (Log [Compound] (M) -4.63927) of the same molecule?
Its value is 56.4664 and 67.1616.

What about the “Gz hCB2” value (Log [Compound] (M) -4.63927) of the same molecule?
Its value is 78.3049 and 53.5883.

What about the “Barr2+GRK2 hCB2” value (Log [Compound] (M) -5.05788) of the same molecule?
The value was 29.8124 and 18.7956.

What about the “Gi1 hCB2” value (Log [Compound] (M) -5.05788) of the same molecule?
Its value is 74.0429 and 76.6089.

And the “Gi2 hCB2” value (Log [Compound] (M) -5.05788)?
The value was 58.4001.

And the “GoB hCB2” value (Log [Compound] (M) -5.05788)?
Its value is 54.53 and 64.4448.

What about the “Gz hCB2” value (Log [Compound] (M) -5.05788) of the same molecule?
Its value is 66.9683 and 41.1092.

What about the “Barr2+GRK2 hCB2” value (Log [Compound] (M) -5.47381) of the same molecule?
The value was 34.9292 and 20.8945.

What about the “Gi1 hCB2” value (Log [Compound] (M) -5.47381) of the same molecule?
The value was 72.8179 and 79.0878.

And the “Gi2 hCB2” value (Log [Compound] (M) -5.47381)?
The value was 60.2299.

What about the “GoB hCB2” value (Log [Compound] (M) -5.47381) of the same molecule?
The value was 53.5084 and 63.1367.

What about the “Gz hCB2” value (Log [Compound] (M) -5.47381) of the same molecule?
Its value is 56.2566 and 45.2442.

What about the “Barr2+GRK2 hCB2” value (Log [Compound] (M) -5.89285) of the same molecule?
Its value is 30.1859 and 15.2974.

And the “Gi1 hCB2” value (Log [Compound] (M) -5.89285)?
The value was 75.9346 and 71.3757.

And the “Gi2 hCB2” value (Log [Compound] (M) -5.89285)?
Its value is 59.8925.

What about the “GoB hCB2” value (Log [Compound] (M) -5.89285) of the same molecule?
Its value is 55.4448 and 59.3006.

And the “Gz hCB2” value (Log [Compound] (M) -5.89285)?
Its value is 73.8416 and 43.9289.

What about the “Barr2+GRK2 hCB2” value (Log [Compound] (M) -6.31878) of the same molecule?
Its value is 31.1196 and 18.9955.

And the “Gi1 hCB2” value (Log [Compound] (M) -6.31878)?
Its value is 70.1509 and 73.9032.

What about the “Gi2 hCB2” value (Log [Compound] (M) -6.31878) of the same molecule?
Its value is 59.7627.

And the “GoB hCB2” value (Log [Compound] (M) -6.31878)?
The value was 55.1551 and 56.3448.

What about the “Gz hCB2” value (Log [Compound] (M) -6.31878) of the same molecule?
The value was 71.9968 and 45.6141.

And the “Barr2+GRK2 hCB2” value (Log [Compound] (M) -6.72585)?
Its value is 25.5172 and 13.5483.

What about the “Gi1 hCB2” value (Log [Compound] (M) -6.72585) of the same molecule?
The value was 69.1585 and 77.5649.

What about the “Gi2 hCB2” value (Log [Compound] (M) -6.72585) of the same molecule?
The value was 61.5795.

What about the “GoB hCB2” value (Log [Compound] (M) -6.72585) of the same molecule?
Its value is 54.5452 and 57.5649.

What about the “Gz hCB2” value (Log [Compound] (M) -6.72585) of the same molecule?
Its value is 45.4258 and 40.2871.

And the “Barr2+GRK2 hCB2” value (Log [Compound] (M) -7.14267)?
The value was 30.2979 and 16.2969.

And the “Gi1 hCB2” value (Log [Compound] (M) -7.14267)?
Its value is 65.6232 and 81.2265.

What about the “Gi2 hCB2” value (Log [Compound] (M) -7.14267) of the same molecule?
The value was 58.2833.

And the “GoB hCB2” value (Log [Compound] (M) -7.14267)?
The value was 51.8616 and 63.3506.

And the “Gz hCB2” value (Log [Compound] (M) -7.14267)?
Its value is 50.5436 and 34.8285.

And the “Barr2+GRK2 hCB2” value (Log [Compound] (M) -7.55284)?
The value was 26.2642 and 26.7415.

What about the “Gi1 hCB2” value (Log [Compound] (M) -7.55284) of the same molecule?
The value was 64.5377 and 66.7095.

And the “Gi2 hCB2” value (Log [Compound] (M) -7.55284)?
Its value is 59.5551.

What about the “GoB hCB2” value (Log [Compound] (M) -7.55284) of the same molecule?
Its value is 57.4727 and 58.7094.

What about the “Gz hCB2” value (Log [Compound] (M) -7.55284) of the same molecule?
The value was 50.2461 and 38.3305.

And the “Barr2+GRK2 hCB2” value (Log [Compound] (M) -8)?
Its value is 20.9979 and 17.0465.

And the “Gi1 hCB2” value (Log [Compound] (M) -8)?
The value was 54.8465 and 52.1925.

What about the “Gi2 hCB2” value (Log [Compound] (M) -8) of the same molecule?
Its value is 54.4549.

What about the “GoB hCB2” value (Log [Compound] (M) -8) of the same molecule?
Its value is 47.1654 and 53.6784.

What about the “Barr2+GRK2 hCB2” value (Log [Compound] (M) -8.22186) of the same molecule?
Its value is 23.9859 and 16.2469.

And the “Gi1 hCB2” value (Log [Compound] (M) -8.22186)?
The value was 56.5677 and 32.8473.

What about the “Gi2 hCB2” value (Log [Compound] (M) -8.22186) of the same molecule?
The value was 55.2855.

What about the “GoB hCB2” value (Log [Compound] (M) -8.22186) of the same molecule?
Its value is 43.0943 and 48.7228.

What about the “Gz hCB2” value (Log [Compound] (M) -8.22186) of the same molecule?
The value was 50.1568 and 46.2389.

What about the “Gi1 hCB2” value (Log [Compound] (M) -8.39794) of the same molecule?
The value was 38.2861 and 47.0726.

And the “Gi2 hCB2” value (Log [Compound] (M) -8.39794)?
Its value is 44.5921.

What about the “GoB hCB2” value (Log [Compound] (M) -8.39794) of the same molecule?
Its value is 29.1733 and 38.4595.

And the “Gi1 hCB2” value (Log [Compound] (M) -8.68787)?
Its value is 27.0908 and 14.9764.

And the “Gi2 hCB2” value (Log [Compound] (M) -8.68787)?
The value was 26.6573.

What about the “GoB hCB2” value (Log [Compound] (M) -8.68787) of the same molecule?
Its value is 22.9675 and 22.9513.

What about the “Gi2 hCB2” value (Log [Compound] (M) -9.15521) of the same molecule?
The value was 7.477.

And the “Gi2 hCB2” value (Log [Compound] (M) -9.61989)?
The value was -6.111.

What about the “Gi2 hCB2” value (Log [Compound] (M) -10.0969) of the same molecule?
Its value is -9.55.

And the “Gi2 hCB2” value (Log [Compound] (M) -10.5529)?
Its value is -9.589.

And the “Gi2 hCB2” value (Log [Compound] (M) -11.0177)?
Its value is -8.914.

What about the “Gi2 hCB2” value (Log [Compound] (M) -11.4949) of the same molecule?
Its value is -12.1971.

And the “Gi2 hCB2” value (Log [Compound] (M) -11.9208)?
Its value is -11.8078.

What about the “Gi2 hCB2” value (Log [Compound] (M) -12.3979) of the same molecule?
The value was -13.4949.

What about the “Gi2 hCB2” value (Log [Compound] (M) -12.8861) of the same molecule?
The value was -11.678.

And the “Gi2 hCB2” value (Log [Compound] (M) -13)?
Its value is -15.0781.

And the “Gz hCB2” value (Log [Compound] (M) -13)?
The value was -3.497.

What about the “Barr2+GRK2 hCB2” value [1] of the same molecule?
The value was -10.739.

What about the “GoB hCB2” value [1] of the same molecule?
Its value is 0.1984.

What about the “Gz hCB2” value [1] of the same molecule?
Its value is 0.9754.

What about the “pEC50 [95% CI]” value (hCB2 Gi1) of the same molecule?
The value was 8.45 [8.4 – 8.5].

What about the “RE, relative efficacy” value (hCB2 Gi1) of the same molecule?
Its value is 0.29.

What about the “pEC50 [95% CI]” value (hCB2 Gi2) of the same molecule?
The value was 8.79 [8.7 – 8.9].

And the “RE, relative efficacy” value (hCB2 Gi2)?
The value was 0.40.

And the “pEC50 [95% CI]” value (hCB2 GoB)?
Its value is 8.58 [8.5 – 8.7].

What about the “RE, relative efficacy” value (hCB2 GoB) of the same molecule?
The value was 0.40.

And the “RE, relative efficacy” value (hCB2 Gz)?
Its value is 0.22.

And the “RE, relative efficacy” value (hCB2 ßarr2+GRK2)?
The value was 0.92.

And the “G13 hCB2” value (Log [Compound] (M) -4.22186)?
The value was 370.

And the “G15 hCB2” value (Log [Compound] (M) -4.22186)?
Its value is 861.

What about the “Gq hCB2” value (Log [Compound] (M) -4.22186) of the same molecule?
Its value is 1817.

And the “Gs hCB2” value (Log [Compound] (M) -4.22186)?
Its value is 9372.

And the “G13 hCB2” value (Log [Compound] (M) -4.63927)?
Its value is 318.

And the “G15 hCB2” value (Log [Compound] (M) -4.63927)?
Its value is 875.

What about the “Gq hCB2” value (Log [Compound] (M) -4.63927) of the same molecule?
The value was 1909.

What about the “Gs hCB2” value (Log [Compound] (M) -4.63927) of the same molecule?
Its value is 9159.

And the “G13 hCB2” value (Log [Compound] (M) -5.05788)?
Its value is 339.
